The values that follow come from patent publication US3966850A, “O-ethyl-S-n-propyl-O-(2-bromo-4-cyanophenyl)-thionothiol-phosphoric acid ester” (priority 1973, dated 1976).

The test system of one data set is insects. The settings on record: known from U.S. Pat. No. 3,607,991; cited from earlier work.
A further data set relates to warm-blooded animals. Briefly: Toxicity to warm-blooded animals (statement in words). It is filed as in vivo. The settings on record: as compared to prior art compounds of analogous structure and same type of action.
Data set [1] in a line: Toxicity test/peroral (LD50, evaluation after 7 days). The settings on record: rat, in vivo, po. The text has this: Test animal: Albino rat (Rattus norvegicus)
Dosing was effected volumetrically after weighing the test animals. A steel knob-ended probe was used for oral administration.

For data set [2], the system named is insects and mites (Acarina). Briefly: Insecticidal and acaricidal activity (statement in words). The settings on record: sucking and biting insects and mites (Acarina). The class given is in vivo.

With `CCOP(=S)(OCC)Oc1ccc(C#N)cc1` [Compound A, O,O-diethyl-O-(4-cyanophenyl)-thionophosphoric acid ester], the insecticidal activity entry with insects was “possess insecticidal activity”.

For orientation: LD50 means the dose at which mortality reaches 50%. Low values mean a more toxic substance, high ones a less toxic substance. Regarding `CCCSP(=S)(OCC)Oc1ccc(C#N)cc1Br` (stereo not shown) [I, O-ethyl-S-n-propyl-O-(2-bromo-4-cyanophenyl)-thionothiol-phosphoric acid ester], the “toxicity to warm-blooded animals” value in the data set on warm-blooded animals is reported as “very low toxicity”. In data set [1], this compound registered an LD50 at 168 h of 100 to 250 mg/kg. Moreover, the “insecticidal and acaricidal activity” value in data set [2] is “good insecticidal and acaricidal activity”.
